Measured values reported in patent US20260317332A1, “BICYCLIC HETEROCYCLE COMPOUNDS FOR THE TREATMENT OF CANCER” (Hoffmann-La Roche Inc., priority 2023, published 2026).

Key:
CD73 [1] = biological target: T1, CD73 (Homo sapiens, UniProt P21589); experiment: CD73 Cellular Assay; assay type: cell-based; set-up: 40 μL of MDA-MB-231 cells (ATCC, HTB-26, breast cancer); host or cells: MDA-MB-231; conditions: MDA-MB-231 cells; 200 μM AMP working solution; 45 min at 37° C.; malachite readout; read-out: Cellular IC50 against CD73
T1 sequence (P21589 27-574): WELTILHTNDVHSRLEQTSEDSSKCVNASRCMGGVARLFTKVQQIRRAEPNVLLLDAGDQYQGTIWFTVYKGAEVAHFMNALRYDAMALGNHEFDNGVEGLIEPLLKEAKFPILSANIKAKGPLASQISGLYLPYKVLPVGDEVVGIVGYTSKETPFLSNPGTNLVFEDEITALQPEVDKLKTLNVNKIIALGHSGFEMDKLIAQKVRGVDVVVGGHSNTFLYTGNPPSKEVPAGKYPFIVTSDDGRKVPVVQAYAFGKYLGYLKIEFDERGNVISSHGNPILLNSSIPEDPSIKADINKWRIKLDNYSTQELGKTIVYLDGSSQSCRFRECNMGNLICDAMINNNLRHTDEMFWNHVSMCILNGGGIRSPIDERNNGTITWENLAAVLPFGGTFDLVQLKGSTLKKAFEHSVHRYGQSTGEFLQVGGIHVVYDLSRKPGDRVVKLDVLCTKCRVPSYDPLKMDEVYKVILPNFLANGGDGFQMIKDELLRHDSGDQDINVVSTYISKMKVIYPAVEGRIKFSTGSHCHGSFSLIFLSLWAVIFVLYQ
Method: Compound serial dilution (1:3) was prepared with Echo 555 liquid handler (Labcyte) into the corresponding wells of a 384-well plate. 40 μL of MDA-MB-231 cells (ATCC, HTB-26, breast cancer, final concentration at 20,000 cells/mL) suspended in assay buffer (20 mM HEPES pH 7.4, 137 mM NaCl, 5.4 mM KCl, 1.3 mM CaCl2, 4.2 mM NaHCO3, 1 mg/mL glucose) were added into the corresponding wells of the plate. After incubating with compounds for 30 minutes, 40 μL of AMP working solution (200 μM AMP in assay buffer) was added into each well in the assay plate. The assay plate was then incubated in a 5% CO2 incubator (Thermo Fisher Scientific) at 37° C. for 45 min. After the reaction was completed, 50 μL of the supernatants was collected and transferred into a new 384 well plate. 10 μL of Malachite A was added to each well in the assay plate and incubated for 10 minutes. 10 μL of Malachite B was then added to each corresponding well of the plate and incubated for 30 minutes. Finally the absorbance value was read on the Envision plate reader at […]. Calculation percentage inhibition by using equation {% inhibition=100×[1−(X−MIN)/(MAX−MIN)]} where X equals to the well signal, Max equals signal of neutral control and MIN equals signal of inhibitor control.

CD8+ T cells = experiment: T Cell Proliferation Assay: CD8+ T cell proliferation; assay type: cell-based; conditions: high AMP condition (200 μM AMP, 5 μM EHNA), CD3/CD28 beads, 72 hours, read-out: CD8+ T cell proliferation EC50 (rescue of proliferation)
Method: (§1) The purpose of this assay is to characterize the potency of inhibitors of CD73 in rescuing adenosine-mediated inhibition of T cell proliferation. CD4+ or CD8+ T cells were isolated from peripheral blood mononuclear cells (PBMCs, HemaCare) by immunomagnetic negative selection using EasySep™ Isolation Kit (STEMCELL Technologies) following the supplier's protocol. Pan T cells were pelleted by centrifugation at 300 gravitational force (g) for 5 minutes at room temperature and re-suspended in PBS. CellTrace™ Violet staining solution (Invitrogen) was added at 1:5,000 and incubated at 37° C. for 20 minutes, protected from light. Complete culture medium [RPMI-1640 (Gibco), 10% Fetal Bovine Serum (Gibco), 2 mM GlutaMAX (Gibco) and 1 mM Sodium Pyruvate (Gibco), 100 U/mL Penicillin-Streptomycin (Gibco) and MEM non-essential amino acids (NEAA) cell culture supplement (1:100, Gibco)] was then added, mixed, and incubated at 37° C. for 5 minutes. Cells were then pelleted by centrifugation at 300 g for 5 minutes at room temperature and re-suspended in fresh, pre-warmed complete culture medium. 50 μL of cells were seeded per well in 96 well u-bottom plates. 50 μL of CD3/CD28 beads-containing medium and 50 μL of media containing compounds were added into cells. 50 μL of media containing AMP and EHNA hydrochloride (Sigma-Aldrich) was added into cells at 200 μM and 5 μM final concentration, respectively. Cells were incubated for 72 hours at 37° C. in a 5% CO2 incubator. 200 μL of PBS was then added to each well and cells were centrifuged at 300 g, 4° C. for 10 minutes. The supernatant was discarded. 50 μL of Human TruStain FcX™ (Fc Receptor Blocking Solution, BioLegend) diluted 1:100 in PBS was added to each well, mixed gently and incubated for 20 minutes at 4° C. 50 μL of staining solution (BioLegend) was added to each well, mixed gently and incubated at 4° C. for 30 minutes. Cells were centrifuged at 300 g, 4° C. for 10 minutes and the supernatant was discarded. The cell pellets were washed with 250 μL of cell staining buffer and centrifuged at 300 g, 4° C. for 10 minutes. The supernatant was discarded and cells were re-suspended in 60 μL of cell staining buffer and analyzed on a flow cytometer.

CD73 [2] = biological target: T1, CD73; experiment: Human CD73 Biochemical Assay; conditions: 0.05 nM recombinant CD73; AMP 5.56 μM final; 10 min at room temperature; LC/MS adenosine readout; read-out: Enzymatic IC50 against human CD73
Method: The purpose of this assay is to identify and characterize inhibitors of human CD73 enzymatic activity. Compound serial dilution (1:3) was prepared with Echo 555 liquid handler (Labcyte) into the corresponding wells of a 384-well plate. 10 μL of enzyme working solution (containing 0.05 nM recombinant CD73 protein, 10 mM Tris pH 7.5, 100 mM NaCl, 0.01% BSA, 0.2 mM Octyl glucoside and 1 mM NaH2PO4) was added to the assay plate and incubated with compounds for 15 minutes at room temperature. After adding 15 μL of AMP working solution (Containing 10 mM Tris pH 7.5, 100 mM NaCl, 0.01% BSA, 0.2 mM Octyl glucoside, with 5.56 μM of AMP final concentration) and incubate for 10 min at room temperature. Stop the reaction by adding 75 μL of stop solution (5% TCA in H2O containing 250 nM 13C5-adenosine) to each well for 10 min incubation. After centrifugation, 75 μL of the mixture was transferred to a new 384-well plate for LC/MS analysis.
Samples from the 384-well plates, were loaded onto an autosampler deck, then injected with ADDA-LC-MS/MS. The aqueous mobile phase is 0.1% formic acid in water. The organic mobile phase is 0.1% formic acid in acetonitrile. Flow rate is maintained at 0.8 mL/minute using Shimadzu pumps. The column is ACE 5 Phenyl, 50×2.1 mm. The analysis was performed on a SCIEX triple quadrupole mass spectrometer operating in positive ion mode. The effluent from the HPLC column was directly introduced into the electrospray ionization (ESI). Multiple reaction monitoring (MRM) is used to determine analyte and internal standard (IS) responses. The MRM for adenosine is 268.1/136.1, for 13C5-Adenosine (IS) is 273.2/136.2. The data is calculated using the peak area ratio (PAR) semi-quantitative method.

CD4+ T cells = experiment: T Cell Proliferation Assay: CD4+ T cell proliferation; assay type: cell-based; conditions: Homo sapiens, high AMP condition (200 μM AMP, 5 μM EHNA), CD3/CD28 beads, 72 hours, read-out: CD4+ T cell proliferation EC50 (rescue of proliferation)
Method: as §1

Structure (SMILES)	IC50 (CD73 [1]) [nM]	IC50 (CD73 [2]) [nM]	EC50 (CD8+ T cells) [nM]	EC50 (CD4+ T cells) [nM]
Cn1nc(O[C@H](c2ccnc(COC3CC3)c2)C(F)F)c2cc(-c3c[nH]c(=O)[nH]c3=O)nnc21 [Example 2, 5-[3-[(1R)-1-[2-(cyclopropoxymethyl)-4-pyridyl]-2,2-difluoro-ethoxy]-1-methyl-pyrazolo[3,4-c]pyridazin-5-yl]-1H-pyrimidine-2,4-dione]	0.21	0.07	0.17	0.18
Cn1nc(O[C@H](c2cc(OCC(F)(F)F)ccn2)C(F)F)c2cc(-c3c[nH]c(=O)[nH]c3=O)nnc21 [Example 4, 5-[3-[(1R)-2,2-difluoro-1-[4-(2,2,2-trifluoroethoxy)-2-pyridyl]ethoxy]-1-methyl-pyrazolo[3,4-c]pyridazin-5-yl]-1H-pyrimidine-2,4-dione]	0.49	0.07	0.22	0.18
Cn1nc(O[C@H](c2ccnc(OCC(F)(F)F)c2)C(F)F)c2cc(-c3c[nH]c(=O)[nH]c3=O)nnc21 [Example 10, 5-[3-[(1R)-2,2-difluoro-1-[2-(2,2,2-trifluoroethoxy)-4-pyridyl]ethoxy]-1-methyl-pyrazolo[3,4-c]pyridazin-5-yl]-1H-pyrimidine-2,4-dione]	0.55	0.06	0.08	0.14
Cn1nc(O[C@H](c2ccnc(OCC(F)F)c2)C(F)F)c2cc(-c3c[nH]c(=O)[nH]c3=O)nnc21 [Example 11B, 5-[3-[(1R)-1-[2-(2,2-difluoroethoxy)-4-pyridyl]-2,2-difluoro-ethoxy]-1-methyl-pyrazolo[3,4-c]pyridazin-5-yl]-1H-pyrimidine-2,4-dione]	0.72	0.05	0.29	0.24
C[C@H](Nc1cc([C@@H](Oc2nn(C)c3nnc(-c4c[nH]c(=O)[nH]c4=O)cc23)C(F)F)ccn1)C(F)(F)F [Example 26, 5-[3-[(1R)-2,2-difluoro-1-[2-[[(1S)-2,2,2-trifluoro-1-methyl-ethyl]amino]-4-pyridyl]ethoxy]-1-methyl-pyrazolo[3,4-c]pyridazin-5-yl]-1H-pyrimidine-2,4-dione]	0.27	0.04	0.09	0.08
COCCOc1cc([C@@H](Oc2nn(C)c3nnc(-c4c[nH]c(=O)[nH]c4=O)cc23)C(F)F)ccn1 [Example 28, 5-[3-[(1R)-2,2-difluoro-1-[2-(2-methoxyethoxy)-4-pyridyl]ethoxy]-1-methyl-pyrazolo[3,4-c]pyridazin-5-yl]-1H-pyrimidine-2,4-dione]	0.63	0.05	0.56	0.33
Cn1nc(O[C@H](c2ccnc(COCC(F)(F)F)c2)C(F)F)c2cc(-c3c[nH]c(=O)[nH]c3=O)nnc21 [Example 34, 5-[3-[(1R)-2,2-difluoro-1-[2-(2,2,2-trifluoroethoxymethyl)-4-pyridyl]ethoxy]-1-methyl-pyrazolo[3,4-c]pyridazin-5-yl]-1H-pyrimidine-2,4-dione]	0.42	0.07	0.11	0.1
O=c1[nH]cc(-c2cc(N3C[C@H](Oc4ncc(C(F)(F)F)cn4)C(F)(F)C3)c3nccn3n2)c(=O)[nH]1 [Example G351, reference compound]	3.53		8.2	8.8

More lines, in order of falling IC50 (CD73 [1]), values ahead:

IC50 (CD73 [1]) [nM]	IC50 (CD73 [2]) [nM]	Structure (SMILES)	EC50 (CD8+ T cells) [nM]	EC50 (CD4+ T cells) [nM]
0.67	0.02	Cn1nc(O[C@H](c2ccnc(OCC(F)(F)F)c2)C(F)F)c2cc(-c3n[nH]c(=O)[nH]c3=O)nnc21 [Example 12, 6-[3-[(1R)-2,2-difluoro-1-[2-(2,2,2-trifluoroethoxy)-4-pyridyl]ethoxy]-1-methyl-pyrazolo[3,4-c]pyridazin-5-yl]-2H-1,2,4-triazine-3,5-dione]	0.12	0.15
0.59	0.06	Cn1nc(O[C@H](c2cc(OCC(F)(F)F)ncn2)C(F)F)c2cc(-c3c[nH]c(=O)[nH]c3=O)nnc21 (single isomer, unassigned) [Example 35A]	0.32	0.3
0.44	0.05	Cn1nc(O[C@H](c2ccc3cnn(CC(F)(F)F)c3c2)C(F)F)c2cc(-c3c[nH]c(=O)[nH]c3=O)nnc21 [Example 24, 5-[3-[(1R)-2,2-difluoro-1-[1-(2,2,2-trifluoroethyl)indazol-6-yl]ethoxy]-1-methyl-pyrazolo[3,4-c]pyridazin-5-yl]-1H-pyrimidine-2,4-dione]	0.23	0.19
0.36	0.06	Cn1nc(O[C@H](c2ccnc(C3CC(F)(F)C3)c2)C(F)F)c2cc(-c3c[nH]c(=O)[nH]c3=O)nnc21 [Example 38, 5-[3-[(1R)-1-[2-(3,3-difluorocyclobutyl)-4-pyridyl]-2,2-difluoro-ethoxy]-1-methyl-pyrazolo[3,4-c]pyridazin-5-yl]-1H-pyrimidine-2,4-dione]	0.07	0.06
